Like-named read-outs stand apart in the source and are kept apart here.
Key:
PARP1 = PARP1 (Homo sapiens (Human), UniProt P09874); assay: PARP1 protein expression level in MDA-MB-436 cells; format: cell-based; details: 100 nM, 24 hours
Description: (§1) MDA-MB-436 cells were placed in a complete DMEM medium (supplemented with 15% FBS; 10 μg/mL Insulin; 16 μg/mL Glutathione and 1% penicillin-streptomycin solution), and cultured at 37° C. under CO2-free conditions. The cells in the logarithmic growth phase were collected, the cell density was adjusted to 2×10^5 cells/well with the culture medium, and the cells were added to a 6-well cell culture plate at a volume of 1 mL/well. The compound to be tested was prepared to 2-fold the final concentration, 1 mL of the compounds at different concentrations were added to administration wells, a medium containing 0.2% DMSO was added to control wells, and the plate was incubated for 24 hours at 37° C. The cells were collected into a 1.5 mL centrifuge tube, 25 μL of RIPA lysis buffer (containing 1× protease inhibitor cocktail) was added, and the cells were lysed on ice for 15 minutes and centrifuged at 12000 rpm/min at 4° C. for 10 minutes. The supernatant was collected and the protein content was determined using the BCA method. The protein sample to be tested was diluted to 0.8 mg/mL, PARP1 was detected using a fully automated protein expression quantitative analyzer (ProteinSimple), and the internal reference protein was 3-actin (both antibodies were from CST). The software (Compass for SW) of the fully automated protein expression quantitative analyzer was used to process the raw data and calculate the peak area and the PARP1 expression rate relative to the control group.
as §1, with “L-15” for “DMEM”, “mL/well and cultured overnight. On day 2, the” for “mL/well. The”, “group. DC50 values were calculated using a four-parameter non-linear fitting model in Graphpad 8.3.0 software.” for “group.”

[1] = system: breast tumor cells MDA-MB-436; assay: MDA-MB-436 cell activity test (CellTiter-Glo, 7 days); format: cell-based, human; details: for IC50: 7 days incubation, read-out: IC50 (nM), MDA-MB-436 cell inhibitory activity; for inhibition at 10 µM: MDA-MB-436, MDA-MB-436 cells, read-out: Max inh. % 10 μM
Description: Breast tumor cells MDA-MB-436 were purchased from ATCC, the culture medium was Leibovitz's L-15+10% FBS, and the cells were cultured in a CO2-free incubator at 37° C. On day 1, the cells in the exponential growth phase were collected, and the cell suspension was adjusted to 4000 cells/135 μL with the culture medium. 135 μL of the cell suspension was added to each well of a 96-well cell culture plate and incubated overnight. On day 2, compounds at different concentrations were added, and the plate was placed in the incubator and incubated for 7 days. After the culture was completed, according to operation instructions for a CellTiter-Glo kit (Promega, G7573), 75 μL of CTG solution, which was already pre-melted and equilibrated to room temperature, was added to each well, and the mixture was uniformly mixed for 2 minutes using a microplate shaker. The plate was placed at room temperature for 10 minutes, and then […] signal values were determined using an Envision2104 plate reader (PerkinElmer). The inhibition rate was calculated using formula (1), where RLUcompound was the readout of the drug treated group, RLUcontrol was the average value of the solvent control group, and RLUblank was the average value of the cell-free well. The IC50 value was calculated using GraphPad Prism software.

[2] = Homo sapiens, MDA-MB-436, 168 h, MDA-MB-436 cells

Sequence of PARP1 (P09874 whole entry): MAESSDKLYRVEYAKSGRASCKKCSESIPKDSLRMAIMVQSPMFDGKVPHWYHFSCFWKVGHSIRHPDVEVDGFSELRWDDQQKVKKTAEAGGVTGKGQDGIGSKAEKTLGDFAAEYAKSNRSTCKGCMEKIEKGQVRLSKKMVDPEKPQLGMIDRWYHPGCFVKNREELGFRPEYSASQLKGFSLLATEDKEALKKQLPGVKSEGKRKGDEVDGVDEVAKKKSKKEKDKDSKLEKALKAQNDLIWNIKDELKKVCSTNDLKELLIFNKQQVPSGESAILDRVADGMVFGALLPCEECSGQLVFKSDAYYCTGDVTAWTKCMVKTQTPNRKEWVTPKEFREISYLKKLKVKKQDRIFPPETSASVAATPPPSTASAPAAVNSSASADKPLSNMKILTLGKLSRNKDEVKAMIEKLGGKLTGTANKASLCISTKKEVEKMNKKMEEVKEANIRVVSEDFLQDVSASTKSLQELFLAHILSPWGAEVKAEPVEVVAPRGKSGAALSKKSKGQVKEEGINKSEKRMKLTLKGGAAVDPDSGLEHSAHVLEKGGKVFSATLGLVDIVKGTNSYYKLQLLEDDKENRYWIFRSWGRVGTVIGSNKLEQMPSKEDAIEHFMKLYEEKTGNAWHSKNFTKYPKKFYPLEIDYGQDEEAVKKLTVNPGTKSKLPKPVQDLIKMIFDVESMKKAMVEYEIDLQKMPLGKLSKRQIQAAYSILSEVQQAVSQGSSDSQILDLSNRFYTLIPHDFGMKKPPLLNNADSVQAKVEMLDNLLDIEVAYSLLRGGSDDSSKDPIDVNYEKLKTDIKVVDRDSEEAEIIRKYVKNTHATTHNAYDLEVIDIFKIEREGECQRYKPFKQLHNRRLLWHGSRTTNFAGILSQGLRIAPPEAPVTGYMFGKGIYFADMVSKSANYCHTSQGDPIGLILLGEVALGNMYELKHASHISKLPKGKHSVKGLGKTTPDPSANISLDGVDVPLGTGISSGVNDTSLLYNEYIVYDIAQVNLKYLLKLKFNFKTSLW

For `CCc1cc2ncc(CN3CCN(c4ccc(C(=O)NC5CCC(Oc6ccc7c(c6)C(=O)N(C6CCC(=O)NC6=O)C7=O)CC5)nc4)CC3)cc2[nH]c1=O` (stereo not shown) [Compound 66, N-((1r,4r)-4-((2-(2,6-dioxopiperidin-3-yl)-1,3-dioxoisoindolin-5-yl)oxy)cyclohexyl)-5-(4-((7-ethyl-6-oxo-5,6-dihydro-1,5-naphthyridin-3-yl)methyl)piperazin-1-yl)picolinamide], the “PARP1 degradation rate @ 100 nM” value (PARP1) was 76.4%, the IC50 [1, 2] was 97.8 nM and the inhibition at 10 µM ([1]; Homo sapiens, 10 μM) was 93.2%.

For `CCc1cc2ncc(CN3CCN(c4ccc(C(=O)NC5CC6(C5)CN(c5ccc7c(c5)C(=O)N(C5CCC(=O)NC5=O)C7=O)C6)nc4)CC3)cc2[nH]c1=O` (stereo not shown) [Compound 24, N-(2-(2-(2,6-dioxopiperidin-3-yl)-1,3-dioxoisoindolin-5-yl)-2-azaspiro[3.3]heptan-6-yl)-5-(4-((7-ethyl-6-oxo-5,6-dihydro-1,5-naphthyridin-3-yl)methyl)piperazin-1-yl)picolinamide], the “PARP1 degradation rate @ 100 nM” value (PARP1) was 76.2%, the IC50 [1, 2] was 38 nM and the inhibition at 10 µM ([1]; Homo sapiens, 10 μM) was 98.9%.

With `CCc1cc2ncc(CN3CCN(c4ccc(C(=O)Nc5cnn(C6CCN(c7ccc8c(c7)C(=O)N(C7CCC(=O)NC7=O)C8=O)CC6)c5)nc4)CC3)cc2[nH]c1=O` (stereo not shown) [Compound 57, N-(1-(1-(2-(2,6-dioxopiperidin-3-yl)-1,3-dioxoisoindolin-5-yl)piperidin-4-yl)-1H-pyrazol-4-yl)-5-(4-((7-ethyl-6-oxo-5,6-dihydro-1,5-naphthyridin-3-yl)methyl)piperazin-1-yl)picolinamide] the “PARP1 degradation rate @ 100 nM” value (PARP1) was 80.6%, the IC50 [1, 2] was 15.8 nM and the inhibition at 10 µM ([1]; Homo sapiens, 10 μM) was 84%.

`CCc1cc2ncc(CN3CCN(c4ccc(C(=O)NC5CCN(CC6CCN(Cc7ccc(-n8c(O)nnc8-c8cc(C(C)C)c(O)cc8O)cc7)CC6)CC5)nc4)CC3)cc2[nH]c1=O` [Compound 8, N-(1-((1-(4-(3-(2,4-dihydroxy-5-isopropylphenyl)-5-hydroxy-4H-1,2,4-triazol-4-yl)benzyl)piperidin-4-yl)methyl)piperidin-4-yl)-5-(4-((7-ethyl-6-oxo-5,6-dihydro-1,5-naphthyridin-3-yl)methyl)piperazin-1-yl)picolinamide] showed an IC50 [1, 2] of 15 nM and an inhibition at 10 µM ([1]; Homo sapiens, 10 μM) of 99.8%.

With `CCc1cc2ncc(CN3CCN(c4ccc(C(=O)NC5CCN(c6cccc(N7CCC(=O)NC7=O)c6)CC5)nc4)CC3)cc2[nH]c1=O` [Compound 62, N-(1-(3-(2,4-dioxotetrahydropyrimidin-1(2H)-yl)phenyl)piperidin-4-yl)-5-(4-((7-ethyl-6-oxo-5,6-dihydro-1,5-naphthyridin-3-yl)methyl)piperazin-1-yl)picolinamide] the IC50 [1, 2] was 17.9 nM and the inhibition at 10 µM ([1]; Homo sapiens, 10 μM) was 82.9%.

`CCc1cc2ncc(CN3CCN(c4ccc(C(=O)NC5CCN(c6ccc7c(c6)CN(C6CCC(=O)NC6=O)C7=O)CC5)nc4)CC3)cc2[nH]c1=O` (stereo not shown) [Compound 31, N-(1-(2-(2,6-dioxopiperidin-3-yl)-1-oxoisoindolin-5-yl)piperidin-4-yl)-5-(4-((7-ethyl-6-oxo-5,6-dihydro-1,5-naphthyridin-3-yl)methyl)piperazin-1-yl)picolinamide] was tested, and the “PARP1 degradation rate @ 100 nM” value (PARP1) was 92.1%.

For `CCc1cc2ncc(CN3CCN(c4ccc(C(=O)NC5CCC(Oc6ccc7c(c6)C(=O)N(C6CCC(=O)NC6=O)C7=O)CC5)nc4)CC3)cc2[nH]c1=O` (stereo not shown) [Compound 67, N-((1s,4s)-4-((2-(2,6-dioxopiperidin-3-yl)-1,3-dioxoisoindolin-5-yl)oxy)cyclohexyl)-5-(4-((7-ethyl-6-oxo-5,6-dihydro-1,5-naphthyridin-3-yl)methyl)piperazin-1-yl)picolinamide], the “Max inh. % 10 μM” value ([1]; MDA-MB-436 cells, 10 μM) was 96.2% and the IC50 ([1]; MDA-MB-436 cells) was 100 nM.

In the case of `CCc1cc2ncc(CN3CCN(c4ccc(C(=O)NC5CCN(C(=O)CC67CC8C[C@H](C6)C[C@H](C8)C7)CC5)nc4)CC3)cc2[nH]c1=O` [Compound 12, N-(1-(2-((3R,5R)-adamantan-1-yl)acetyl)piperidin-4-yl)-5-(4-((7-ethyl-6-oxo-5,6-dihydro-1,5-naphthyridin-3-yl)methyl)piperazin-1-yl)picolinamide], the IC50 [1, 2] is reported as 44 nM and the inhibition at 10 µM ([1]; Homo sapiens, 10 μM) is reported as 89.6%.

`CCc1cc2ncc(CN3CCN(c4ccc(C(=O)N[C@H]5C[C@@H](Nc6ccc7c(c6)C(=O)N(C6CCC(=O)NC6=O)C7=O)C5)nc4)CC3)cc2[nH]c1=O` (stereo partly shown) [Compound 37, N-((1s,3s)-3-((2-(2,6-dioxopiperidin-3-yl)-1,3-dioxoisoindolin-5-yl)amino)cyclobutyl)-5-(4-((7-ethyl-6-oxo-5,6-dihydro-1,5-naphthyridin-3-yl)methyl)piperazin-1-yl)picolinamide] gave an IC50 [1, 2] of 23 nM and an inhibition at 10 µM ([1]; Homo sapiens, 10 μM) of 92.1%.

Compound `CCc1cc2ncc(CN3CCN(c4ccc(C(=O)N[C@H]5CCN(c6cc7c(cc6F)C(=O)N(C6CCC(=O)NC6=O)C7=O)C5)nc4)CC3)cc2[nH]c1=O` (stereo partly drawn) [Compound 51, N-((3S)-1-(2-(2,6-dioxopiperidin-3-yl)-6-fluoro-1,3-dioxoisoindolin-5-yl)pyrrolidin-3-yl)-5-(4-((7-ethyl-6-oxo-5,6-dihydro-1,5-naphthyridin-3-yl)methyl)piperazin-1-yl)picolinamide] has an IC50 [1, 2] of 19 nM and an inhibition at 10 µM ([1]; Homo sapiens, 10 μM) of 97.5%.

`CCc1cc2ncc(CN3CCN(c4ccc(C(=O)NC5CCN(c6ncc(N7CCC(=O)NC7=O)cn6)CC5)nc4)CC3)cc2[nH]c1=O` [Compound 69, N-(1-(5-(2,4-dioxotetrahydropyrimidin-1(2H)-yl)pyrimidin-2-yl)piperidin-4-yl)-5-(4-((7-ethyl-6-oxo-5,6-dihydro-1,5-naphthyridin-3-yl)methyl)piperazin-1-yl)picolinamide] was tested, and the IC50 [1, 2] was 15.3 nM and the inhibition at 10 µM ([1]; Homo sapiens, 10 μM) was 88.4%.

`CCc1cc2ncc(CN3CCN(c4ccc(NC(=O)c5cnn(C6CCN(c7ccc8c(c7)C(=O)N(C7CCC(=O)NC7=O)C8=O)CC6)c5)nc4)CC3)cc2[nH]c1=O` (stereo not shown) [Compound 68, 1-(1-(2-(2,6-dioxopiperidin-3-yl)-1,3-dioxoisoindolin-5-yl)piperidin-4-yl)-N-(5-(4-((7-ethyl-6-oxo-5,6-dihydro-1,5-naphthyridin-3-yl)methyl)piperazin-1-yl)pyridin-2-yl)-1H-pyrazole-4-carboxamide] showed an IC50 [1, 2] of 12.3 nM and an inhibition at 10 µM ([1]; Homo sapiens, 10 μM) of 88.6%.

For `CCc1cc2ncc(CN3CCN(c4ccc(C(=O)NC5CCN(C6CN(c7cc8c(cc7F)C(=O)N(C7CCC(=O)NC7=O)C8=O)C6)CC5)nc4)CC3)cc2[nH]c1=O` (stereo not shown) [Compound 26, N-(1-(1-(2-(2,6-dioxopiperidin-3-yl)-6-fluoro-1,3-dioxoisoindolin-5-yl)azetidin-3-yl)piperidin-4-yl)-5-(4-((7-ethyl-6-oxo-5,6-dihydro-1,5-naphthyridin-3-yl)methyl)piperazin-1-yl)picolinamide], the “PARP1 degradation rate @ 100 nM” value (PARP1) was 83.5%, the IC50 [1, 2] was 53 nM and the inhibition at 10 µM ([1]; Homo sapiens, 10 μM) was 81.7%.

`CCc1cc2ncc(CN3CCN(c4ccc(C(=O)N[C@H]5C[C@@H](Nc6cc7c(cc6F)C(=O)N(C6CCC(=O)NC6=O)C7=O)C5)nc4)CC3)cc2[nH]c1=O` (stereo partly shown) [Compound 41, N-((1s,3s)-3-((2-(2,6-dioxopiperidin-3-yl)-6-fluoro-1,3-dioxoisoindolin-5-yl)amino)cyclobutyl)-5-(4-((7-ethyl-6-oxo-5,6-dihydro-1,5-naphthyridin-3-yl)methyl)piperazin-1-yl)picolinamide] showed an IC50 [1, 2] of 11 nM and an inhibition at 10 µM ([1]; Homo sapiens, 10 μM) of 85.7%.
